Experimental data from US8535689B2, “Identification of bacterial autoinducer and use in treating bacterial pathogenicity” (priority 2007, dated 2013).
“Also recorded” adds a separate entry of the source.

How the values were obtained:
[1] = system: CAI-1 reporter strain MM920 (V. cholerae El Tor C6706str ΔcqsA ΔluxQ/pBB1 (luxCDABE from V. harveyi)); test: Bioluminescence assay in V. cholerae CAI-1 reporter strain MM920; type: cell-based, Vibrio cholerae; details: for bioluminescence as a percentage of the bioluminescence activity of the V. cholerae CAI-1 autoinducer: reporter strain MM920, reference (S)-3-hydroxytridecan-4-one (CAI-1), FIG. 13; for activation of the V. cholerae quorum sensing circuit: to different degrees, pattern C13(5)>C13(R)>C12(S)≈C12(R)>C11(S)>C11(R); for activation of the V. cholerae quorum sensing circuit / fold greater biological activity than the molecule one carbon shorter: FIG. 3; for fold greater biological activity than the molecule one carbon shorter: side chain length comparison
Description: CAI-1 Purification from E. coli. V. cholerae cqsA (VCA0523) was cloned into pTrc99A and transformed into E. coli strain DH5α. The recombinant strain was grown at room temperature with aeration in 2.4 L of M9 medium supplemented with glucose (4 g/L), leucine (0.5 g/L), and ampicillin (0.1 g/L). cqsA expression was induced for 16 h with 0.5 mM IPTG. Following centrifugation at 10,000×g and passage through a 0.22 μm filter, the cell-free culture fluid was mixed with 0.6 v dichloromethane (DCM) in a reparatory funnel. The organic phase was isolated, evaporated, and assayed for CAI-1 activity using the bioluminescent V. cholerae CAI-1 reporter strain MM920 (V. cholerae El Tor C67O6str ΔcqsA ΔluxQ/pBB1 (luxCDABE from V. harveyi)), as described in Miller et al. (2002). The extract was dissolved in DCM and further purified by passage through silica gel with 0.5 L of 7:3 DCM:methanol, followed by concentration via evaporation. 50-100 mg of the concentrate was dissolved in ˜1 mL DCM, injected onto a (2×25-cm) ethyl-pyridine HPLC column, and eluted using a gradient of increasing ethyl acetate in hexanes (0-80%) at 20 mL/min. Fractions were tested for CAI-1 activity; active fractions were pooled.
Bioluminescence Assays. When assaying column fractions for autoinducer activity, 5% of each fraction was evaporated and dissolved in a mixture of water:acetonitrile (2:1). This preparation was added at 2% volume to the CAI-1 reporter strain MM920 (V. cholerae El Tor C67O6str ΔcqsA ΔluxQ/pBB1 (luxCDABE from V. harveyi)) according to previously described methods, as described in Miller et al. (2002). Synthetic CAI-1 preparations were dissolved in DMSO and supplied at 0.5% total volume to MM920 at specified concentrations.
[…]. Bioluminescence measurements at varying concentrations of analogue (generally from […]) were measured using a Wallac EnVision 2103 Multilabel Reader (Perkin Elmer, Waltham, Mass.).

[2] = system: TcpA, a subunit of the toxin co-regulated pilus (TCP); test: Western blot of TcpA production in V. cholerae strains treated with synthetic CAI-1; type: cell-based, Vibrio cholerae; details: ΔluxQ
Description: Western Blot Analysis. […]. Anti-TcpA antibody and Anti-Rabbit IgG Horseradish Peroxidase Conjugate (Promega) were used with the SuperSignal West Pico Chemiluminescent Substrate (Pierce) system.
Results. A major goal of quorum-sensing research is to develop strategies to artificially manipulate quorum-sensing-controlled processes in bacteria. […]. Proc. Natl. Acad. Sci. USA 84, 2833-2837 (1987), hereby incorporated by reference into this application. […]. […]. Importantly, synthetic CAI-1 had no effect on TcpA production in a ΔluxQ, ΔcqsS strain, which cannot respond to either CAI-1 or AI-2 (FIG. 4b, bottom row). […]

[3] = CAI-1 thermal stability, read with the V. cholerae bioluminescence assay; type: physicochemical; details: pH 7 phosphate buffer, FIG. 6a
Description: CAI-1 stock in DMSO was diluted 1:128 into 10 mM potassium phosphate buffer at pH 7 to a final autoinducer concentration of 400 μM. Samples were incubated for specified lengths of time, chilled briefly on ice, and frozen in dry ice/ethanol. Samples were thawed, diluted 1:3 in the same phosphate buffer, and read with the V. cholerae bioluminescence assay. Diluted sample was added at 2.5% of reporter culture volume, for final concentrations of 3.3 μM CAI-1 and 250 μM potassium phosphate.

[4] = CAI-1 pH stability, read with the V. cholerae bioluminescence assay; type: physicochemical; details: pH 2, 4, 6, 7, 8, 10, 12 potassium phosphate buffer; 5, 20, 60 minutes or overnight; FIG. 6b
Description: CAI-1 stock in DMSO was diluted 1:128 into 100 mM potassium phosphate buffer at specified pH values to a final autoinducer concentration of 400 μM. Following incubation at room temperature for specified times, samples were neutralized with an equal volume of 100 mM potassium phosphate buffer (e.g. pH 10 buffer was added to pH 4 buffered autoinducer). Neutralized samples, now with 200 μM CAI-1, were chilled briefly on ice and frozen in dry ice/ethanol. Autoinducer samples were thawed, diluted 1:3 in 100 mM pH 7 potassium phosphate buffer, and read with the V. cholerae bioluminescence assay. Diluted sample was added at 5% of reporter culture volume, for final concentrations of 3.3 μM CAI-1 and 5 mM potassium phosphate.

[5] = system: E. coli KX1200 (MG1655 ΔluxS); test: CAI-1 stability in culture with E. coli cells; type: in vitro ADME, Escherichia coli; details: E. coli ΔluxS in LB, 37° C. overnight, 10 μM CAI-1; FIG. 6d
Description: (§1) Early stationary phase E. coli KX1200 (MG1655 ΔluxS) and V. cholerae BH1575 (El Tor C6706str ΔluxS ΔcqsA) were diluted to OD 0.1 in LB medium. Along with sterile LB medium, they were shaken overnight at 37° C. with and without 10 μM CAI-1 supplementation. Culture and LB samples were centrifuged at 10,000×g, filtered with 0.22 μm filters, and read at 10% final culture volume using the V. cholerae CAI-1 reporter bioassay.

[6] = system: V. cholerae BH1575 (El Tor C6706str ΔluxS ΔcqsA); test: CAI-1 stability in culture with V. cholerae cells; type: in vitro ADME, Vibrio cholerae; details: V. cholerae ΔluxS ΔcqsA in LB, 37° C. overnight, 10 μM CAI-1; FIG. 6d
Description: as §1

Question: Which “bioluminescence as a percentage of the bioluminescence activity of the V. cholerae CAI-1 autoinducer” value (from here on “bioluminescence as a percentage”) [1] does the source give for [2H]C([2H])(C)C(O)C(=O)CCCCCCCCC (stereo not drawn) [2,2-D2-3-hydroxytridecan-4-one] here?
Answer: The value was “equivalent activity to CAI-1”.

Question: With CCCCCCCC(=O)[C@H](O)CC [C11(R), (R)-3-hydroxyundecan-4-one] as the molecule, how does the “activation of the V. cholerae quorum sensing circuit” value (from here on “activation”) [1] read?
Answer: Its value is “activated”.

Question: With CCCCCCCC(=O)[C@@H](O)CC [C11(S), (S)-3-hydroxyundecan-4-one] as the molecule, how does the “activation” value [1] read?
Answer: Its value is “activated”.

Question: What does the source list for CCCCCCCCCC(=O)[C@@H](O)CC [CAI-1, (S)-3-hydroxytridecan-4-one]?
Answer: bioluminescence as a percentage of the bioluminescence activity of the V. cholerae CAI-1 autoinducer [1]: 100%; activation of the V. cholerae quorum sensing circuit [1]: activated; TcpA production ([2]; cqsA+ V. cholerae strain, FIG. 4b middle row): repress TcpA production; also recorded: decreased; TcpA production ([2]; ΔcqsA V. cholerae strain, CAI-1 at concentrations up to 10 μM, FIG. 4b top row): repress TcpA production; also recorded: substantially repressed; TcpA production ([2]; ΔcqsS V. cholerae strain, FIG. 4b bottom row): no effect; heat stability ([3]; high temperatures (up to 80° C.)): subject to degradation; heat stability ([3]; physiologically relevant temperatures, 5, 20, 60 minutes or overnight): heat stable; pH stability [4]: stable under a wide range of pH values; effect of cells on CAI-1 levels [5]: do not adversely affect CAI-1 levels; effect of cells on CAI-1 levels [6]: do not adversely affect CAI-1 levels

Question: For CCCCCCCCC(=O)[C@@H](O)CC [Compound 5, (S)-3-hydroxydodecan-4-one], which “bioluminescence as a percentage” value [1] is on record?
Answer: The value was “twenty”.

Question: What about the “activation” value [1] of the same molecule?
Answer: Its value is “activated”.

Question: Which “bioluminescence as a percentage” value [1] does the source give for CCCCCCCCC(=O)[C@H](O)CC [Compound 6, (R)-3-hydroxydodecan-4-one] here?
Answer: The value was “twenty”.

Question: And the “activation” value [1]?
Answer: Its value is “activated”.

Question: Which “bioluminescence as a percentage” value [1] does the source give for CCCCCCCCCC(=O)[C@H](O)CC [Compound 7, (R)-3-hydroxytridecan-4-one] here?
Answer: Its value is “forty”.

Question: What about the “activation” value [1] of the same molecule?
Answer: Its value is “activated”.

Question: For CCCCCCCCCC(=O)C(=O)CC [Compound 10, tridecane-3,4-dione], which “bioluminescence as a percentage” value [1] is on record?
Answer: The value was “ten”.

Question: And the “bioluminescence as a percentage” value ([1]; listed as tridecan-3,4-dione)?
Answer: Its value is 10%.

Question: With CCCCCCCCCC(=O)C(N)CC.Cl (stereo not drawn) [Compound 22, 3-aminotridecan-4-one hydrochloride] as the molecule, how does the “bioluminescence as a percentage” value [1] read?
Answer: The value was “equivalent activity to CAI-1”.

Question: Which “fold greater biological activity than the molecule one carbon shorter” value [1] does the source give for CCCCCCCCCC(=O)C(O)CC (stereo not drawn) [thirteen-carbon molecule, 3-hydroxytridecan-4-one] here?
Answer: Its value is 8 fold.

Question: Which “fold greater biological activity than the molecule one carbon shorter” value [1] does the source give for CCCCCCCCC(=O)C(O)CC (stereo not drawn) [twelve-carbon molecule, 3-hydroxydodecan-4-one] here?
Answer: Its value is 8 fold.
